Experimental data reported in ChEMBL document CHEMBL5055679, “Discovery of a Novel Androgen Receptor Antagonist Manifesting Evidence to Disrupt the Dimerization of the Ligand-Binding Domain via Attenuating the Hydrogen-Bonding Network Between the Two Monomers” (J Med Chem, 2021).
Calls of active or inactive are those of the source. The rule behind the calls is not given here.

What was measured:
DU-145 = assay: Cytotoxicity against human DU-145 cells assessed as reduction in cell viability incubated for 72 hrs by MTT assay; assay type: functional, cell-based
HepG2 = assay: Cytotoxicity against human HepG2 cells assessed as reduction in cell viability at 50 uM incubated for 72 hrs by MTT assay; assay type: functional, cell-based
[1] = target: T1, Androgen receptor (Homo sapiens) (UniProt P10275); assay: Antagonist activity at androgen receptor in human LNCaP cells assessed as reduction in DHT-induced PSA mRNA expression after 48 hrs by SYBR green dye based qPCR analysis; assay type: cell-based; conditions: filed as antagonist, dose 0.1-10 µM
T1 sequence (whole entry): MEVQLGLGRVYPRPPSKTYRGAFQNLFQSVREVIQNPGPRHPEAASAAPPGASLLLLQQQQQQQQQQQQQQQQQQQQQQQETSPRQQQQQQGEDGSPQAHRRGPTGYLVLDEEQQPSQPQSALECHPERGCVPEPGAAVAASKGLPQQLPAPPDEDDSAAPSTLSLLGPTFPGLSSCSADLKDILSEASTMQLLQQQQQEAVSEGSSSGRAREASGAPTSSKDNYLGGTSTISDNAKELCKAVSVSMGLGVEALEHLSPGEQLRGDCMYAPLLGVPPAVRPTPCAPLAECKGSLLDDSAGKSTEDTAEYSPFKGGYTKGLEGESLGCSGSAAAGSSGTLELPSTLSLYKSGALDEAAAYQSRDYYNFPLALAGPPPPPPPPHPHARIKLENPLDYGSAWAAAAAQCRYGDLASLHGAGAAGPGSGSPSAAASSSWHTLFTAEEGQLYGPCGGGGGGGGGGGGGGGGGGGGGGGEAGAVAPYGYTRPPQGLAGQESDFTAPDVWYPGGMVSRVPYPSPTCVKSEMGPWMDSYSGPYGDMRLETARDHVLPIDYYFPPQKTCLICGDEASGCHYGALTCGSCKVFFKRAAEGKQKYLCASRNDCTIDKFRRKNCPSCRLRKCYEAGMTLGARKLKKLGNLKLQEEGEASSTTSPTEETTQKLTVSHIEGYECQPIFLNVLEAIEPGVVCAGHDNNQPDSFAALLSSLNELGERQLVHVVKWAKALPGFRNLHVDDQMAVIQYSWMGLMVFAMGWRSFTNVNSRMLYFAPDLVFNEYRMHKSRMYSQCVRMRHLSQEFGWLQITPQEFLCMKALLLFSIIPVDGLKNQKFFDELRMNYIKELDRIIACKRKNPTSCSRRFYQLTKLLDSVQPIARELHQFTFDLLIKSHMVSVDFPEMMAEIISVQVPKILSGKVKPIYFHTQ

[2] = target: T2, Mineralocorticoid receptor (Homo sapiens) (UniProt P08235); assay: Antagonist activity at mineralocorticoid receptor in human PC-3 cells assessed as reduction in aldosterone-induced luciferase activity at 10 uM by dual-Glo luciferase assay; assay type: cell-based
T2 sequence (whole entry): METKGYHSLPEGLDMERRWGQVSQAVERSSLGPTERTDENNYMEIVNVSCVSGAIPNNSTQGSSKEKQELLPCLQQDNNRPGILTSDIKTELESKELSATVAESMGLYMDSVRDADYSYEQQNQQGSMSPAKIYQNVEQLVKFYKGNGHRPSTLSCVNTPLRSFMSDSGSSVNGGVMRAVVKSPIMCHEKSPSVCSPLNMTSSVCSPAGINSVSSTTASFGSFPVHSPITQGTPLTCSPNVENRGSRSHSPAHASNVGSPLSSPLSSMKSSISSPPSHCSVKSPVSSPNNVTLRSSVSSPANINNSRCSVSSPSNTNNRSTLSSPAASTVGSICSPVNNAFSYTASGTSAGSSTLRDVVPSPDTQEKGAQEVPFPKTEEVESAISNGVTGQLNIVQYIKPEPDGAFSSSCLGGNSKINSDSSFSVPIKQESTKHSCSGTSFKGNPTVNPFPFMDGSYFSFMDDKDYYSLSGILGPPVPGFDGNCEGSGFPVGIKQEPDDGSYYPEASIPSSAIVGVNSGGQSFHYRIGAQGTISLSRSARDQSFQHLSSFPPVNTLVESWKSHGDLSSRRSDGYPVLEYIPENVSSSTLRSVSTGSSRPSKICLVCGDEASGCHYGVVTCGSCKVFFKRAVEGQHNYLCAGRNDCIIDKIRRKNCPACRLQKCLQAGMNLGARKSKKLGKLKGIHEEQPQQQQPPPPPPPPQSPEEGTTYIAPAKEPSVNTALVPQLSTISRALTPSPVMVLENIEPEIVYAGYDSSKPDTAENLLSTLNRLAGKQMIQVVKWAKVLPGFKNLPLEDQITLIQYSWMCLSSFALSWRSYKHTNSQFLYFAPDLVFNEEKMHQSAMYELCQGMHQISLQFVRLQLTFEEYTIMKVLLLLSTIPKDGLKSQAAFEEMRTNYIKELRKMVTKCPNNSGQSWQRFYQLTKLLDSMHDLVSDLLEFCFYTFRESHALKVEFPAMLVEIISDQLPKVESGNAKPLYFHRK

NIH3T3 = assay: Cytotoxicity against mouse NIH3T3 cells assessed as reduction in cell viability incubated for 72 hrs by MTT assay; assay type: cell-based; conditions: nih3t3, 72 h

## O=c1cc(C(F)(F)F)c2ccc(OCc3ccc(Br)cc3)cc2o1
DU-145
  Activity: Active
HepG2
  Activity: Active
[1]
  Activity: Dose-dependent effect
[2]
  Activity: inactive
NIH3T3
  Activity: Non-Toxic
